Here are results for twelve molecules from patent US20260365628A1, “SUBSTITUTED 3,4-DIHYDROQUINOLINONE INHIBITORS OF TSHR” (Septerna, Inc., priority 2022, published 2026).

Broadly, the IC50 is the midpoint of a concentration-inhibition curve.

In the test the target is T1, hTSHR (Homo sapiens, UniProt P16473).
T1 construct: expressed in transfected cells
The test is described as follows: hTSHR TR-FRET cAMP Assay (inhibition of M22-stimulated cAMP production). It is filed as cell-based. The settings on record: Expi293F Inducible cells stably expressing hTSHR; cAMP HTRF; stimulated with EC80 of anti-TSHR antibody M22; 15 min compound preincubation, 30 min at 37° C.; read-out: Activity (IC50 bins). An outline of the steps:
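Readout was a cAMP HTRF ratio of 655/620 nm after lysis, scaled between the EC80 M22 signal (0% inhibition) and no-agonist vehicle (100%). Frozen induced Expi293F-hTSHR cells saw test compounds (0.5% DMSO) for 15 min at 37 °C before 30 min of M22 stimulation at EC80.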
For orientation: Time-resolved FRET reads energy transfer from a long-lived donor to a nearby acceptor.

T1 sequence (P16473 21-764): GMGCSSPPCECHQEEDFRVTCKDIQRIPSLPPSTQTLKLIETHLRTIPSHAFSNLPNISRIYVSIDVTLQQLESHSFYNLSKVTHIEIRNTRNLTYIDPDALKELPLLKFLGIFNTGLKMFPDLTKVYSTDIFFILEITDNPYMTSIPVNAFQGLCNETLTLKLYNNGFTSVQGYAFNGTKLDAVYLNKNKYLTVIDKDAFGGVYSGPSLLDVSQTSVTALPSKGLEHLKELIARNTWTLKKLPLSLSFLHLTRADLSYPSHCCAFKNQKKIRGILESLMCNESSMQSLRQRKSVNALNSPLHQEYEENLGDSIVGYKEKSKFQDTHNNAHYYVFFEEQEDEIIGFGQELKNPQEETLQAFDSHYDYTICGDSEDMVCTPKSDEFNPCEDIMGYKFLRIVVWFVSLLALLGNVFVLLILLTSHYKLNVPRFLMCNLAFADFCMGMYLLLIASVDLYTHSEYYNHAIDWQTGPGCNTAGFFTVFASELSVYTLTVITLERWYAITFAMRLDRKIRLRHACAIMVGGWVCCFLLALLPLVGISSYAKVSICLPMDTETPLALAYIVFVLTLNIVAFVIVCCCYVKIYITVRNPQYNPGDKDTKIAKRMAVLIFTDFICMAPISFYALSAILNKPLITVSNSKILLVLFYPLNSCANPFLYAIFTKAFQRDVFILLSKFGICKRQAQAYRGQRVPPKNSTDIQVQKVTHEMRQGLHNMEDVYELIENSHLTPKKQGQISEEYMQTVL

For `C[C@@H](c1cccc([C@H](O)C(F)(F)F)c1)n1c(=O)cnc2cc(NC(=O)NC(C)(C)C)ccc21` [Example 156, 1-(tert-butyl)-3-(2-oxo-1-((S)-1-(3-((R)-2,2,2-trifluoro-1-hydroxyethyl)phe-nyl)ethyl)-1,2-dihydroquinoxalin-6-yl)urea], the IC50 is 100 to 1000 nM.

As to `Cc1cccc(CN2C(=O)[C@@H](C)Oc3cc(NC(=O)NC(C)(C)C)ccc32)c1` [Example 157, 3-tert-butyl-1-[(2R)-2-methyl-4-[(3-methylphenyl)methyl]-3-oxo-2H-1,4-benzoxazin-7-yl]urea], the 50% inhibitory concentration (IC50) was less than 100 nM.

On to `C[C@H]1Oc2cc(NC(=O)NC(C)(C)C)ccc2N(Cc2cccc(C(F)F)c2)C1=O` [Example 158, (R)-1-(tert-butyl)-3-(4-(3-(difluoro-methyl)benzyl)-2-methyl-3-oxo-3,4-dihydro-2H-benzo [b][1,4]oxazin-7-yl)urea], for which the half-maximal inhibitory concentration (IC50) is less than 100 nM.

With `C[C@H]1Oc2cc(NC(=O)NC(C)(C)C)ccc2N(Cc2cccc(OC(F)(F)F)c2)C1=O` [Example 159, (R)-1-(tert-butyl)-3-(2-methyl-3-oxo-4-(3-(trifluoro-methoxy)benzyl)-3,4-dihydro-2H-benzo [b][1,4]oxazin-7-yl)urea], the half-inhibitory concentration (IC50) is less than 100 nM.

As for `C[C@H]1Oc2cc(NC(=O)NC(C)(C)C)ccc2N(Cc2cccc(OC(F)F)c2)C1=O` [Example 160, (R)-1-(tert-butyl)-3-(4-(3-(difluoro-methoxy)benzyl)-2-methyl-3-oxo-3,4-dihydro-2H-benzo [b][1,4]oxazin-7-yl)urea], the half-maximal inhibitory concentration (IC50) is less than 100 nM.

Take `C[C@H]1Oc2cc(NC(=O)NC(C)(C)C)ccc2N(Cc2cccc(C(F)(F)F)n2)C1=O` [Example 161, (R)-1-(tert-butyl)-3-(2-methyl-3-oxo-4-((6-(trifluoro-methyl)pyridin-2-yl)methyl)-3,4-dihydro-2H-benzo [b][1,4]oxazin-7-yl)urea]: the half-maximal inhibitory concentration (IC50) is less than 100 nM.

Consider `C[C@H]1Oc2cc(NC(=O)NC(C)(C)C)ccc2N(Cc2cc(C(F)(F)F)ccn2)C1=O` [Example 162, (R)-1-(tert-butyl)-3-(2-methyl-3-oxo-4-((4-(trifluoro-methyl)pyridin-2-yl)methyl)-3,4-dihydro-2H-benzo [b][1,4]oxazin-7-yl)urea], for which the half-inhibitory concentration (IC50) fell in the range of 100 to 1000 nM.

Consider `C[C@H]1Oc2cc(NC(=O)NC(C)(C)C)ccc2N(Cc2ccnc(C(F)(F)F)c2)C1=O` [Example 163, (R)-1-(tert-butyl)-3-(2-methyl-3-oxo-4-((2-(trifluoro-methyl)pyridin-4-yl)methyl)-3,4-dihydro-2H-benzo [b][1,4]oxazin-7-yl)urea], for which the 50% inhibitory concentration (IC50) lay within 100 to 1000 nM.

As to `COc1cccc(CN2C(=O)[C@@H](C)Oc3cc(NC(=O)NC(C)(C)C)ccc32)c1` [Example 164, (R)-1-(tert-butyl)-3-(4-(3-methoxy-benzyl)-2-methyl-3-oxo-3,4-dihydro-2H-benzo [b][1,4]oxazin-7-yl)urea], the IC50 was in the range of 100 to 1000 nM.

For the molecule `C[C@H]1Oc2cc(NC(=O)NC(C)(C)C)ccc2N(Cc2csc(C(F)(F)F)n2)C1=O` [Example 165, (R)-1-(tert-butyl)-3-(2-methyl-3-oxo-4-((2-(trifluoro-methyl)thiazol-4-yl)methyl)-3,4-dihydro-2H-benzo [b][1,4]oxazin-7-yl)urea], the IC50 lay within 100 to 1000 nM.

As for `C[C@H]1Oc2cc(NC(=O)NC(C)(C)C)ccc2N(Cc2cccc(OC(F)(F)F)n2)C1=O` [Example 166, (R)-1-(tert-butyl)-3-(2-methyl-3-oxo-4-((6-(trifluoro-methoxy)pyridin-2-yl)methyl)-3,4-dihydro-2H-benzo [b][1,4]oxazin-7-yl)urea], the IC50 is less than 100 nM.

With `C[C@H]1Oc2cc(NC(=O)NC(C)(C)C)ccc2N(Cc2ccnc(C(F)(F)F)n2)C1=O` [Example 167, (R)-1-(tert-butyl)-3-(2-methyl-3-oxo-4-((2-(trifluoro-methyl)pyrimidin-4-yl)methyl)-3,4-dihydro-2H-benzo [b][1,4]oxazin-7-yl)urea], the 50% inhibitory concentration (IC50) fell in the range of 100 to 1000 nM.
